Assay results published in patent US20210276971A1, “TRIAZAMACROCYCLE-DERIVED CHELATOR COMPOSITIONS FOR COORDINATION OF IMAGING AND THERAPY METAL IONS AND METHODS OF USING SAME” (The Research Foundation for The State University of New York, priority 2018, published 2021).

Experiments:
[1] = EDTA challenge of ^44Sc complexes (10× excess EDTA, 37° C.); assay type: physicochemical; conditions: for % complex stability: EDTA, 10× eq, 37° C.; for kinetic inertness (transchelation): presence of 10×EDTA
Method: Challenge experiments. To measure relative complex stability, 10 uL of ligand solution at 100000 ng/mL was added to 100 uL EDTA to produce 10× excess EDTA. Mixtures were incubated at 37° C. for 1 h. To evaluate plasma stability, 10 uL of ligand solution at 100000 ng/mL added to 50 uL mouse plasma. Incubated at 37° C. for 1 h. Tubes were intermittently vortexed and 2 uL was removed at the designated timepoints and spotted onto TLC plates.

[2] = Plasma stability of ^44Sc complexes (37° C.); assay type: in vitro ADME, Rat; conditions: for % complex stability: Rat Plasma, 37°
[3] = HPLC check of interconversion of metal-complex diastereomers; assay type: physicochemical; conditions: HPLC-separated peaks of Sc(III)/Lu(III) complexes, reinjected
Method: FIG. 13: Sc-Overlay and Lu-Overlay—A stock solution of PICAGA (2 mg/mL) in DI water was prepared. 1.1 equivalents of metal added to the ligand. ScCl3.6H2O or Lu(ClO4)3.6H2O. pH was adjusted to 6-7 with 5 M NaOH. Complex solutions were injected on HPLC. Each peak associated with the PICAGA (5.7 and 5.9 min) was collected and reinjected at 20 min.
A direct DO3A-monoamide DUPA conjugate analogue was also synthesized. The fully assembled conjugates DOTA-DUPA and picaga-DUPA were fully deprotected and characterized using ^1H-, ^13C-NMR and mass spectrometry. Following complete characterization, the non-radioactive scandium complexes were formed and characterized using HPLC-analysis. As the glutarate arm is introduced as the pure S-entantiomer, where the alpha carbon retains the chiral alpha carbon and subsequently introduces chirality to the ligand.

% complex stability ([1]; t = 0) [%] | % complex stability ([1]; t = 10 min) [%] | % complex stability ([1]; t = 30 min) [%] | % complex stability ([1]; t = 60 min) [%] | kinetic inertness (transchelation) [1] | % complex stability ([2]; t = 10 min) [%] | % complex stability ([2]; t = 30 min) [%] | % complex stability ([2]; t = 60 min) [%] | kinetic inertness (transchelation) ([2]; rat plasma) | interconversion of complex diastereomers [3] | interconversion of complex diastereomers ([3]; listed as picaga-DUPA) | SMILES
91.4 | 91.5 ± 0.8 | 91.4 ± 0.8 | 90.5 ± 0.6 | no detectable transchelation | 90.1 ± 0.8 | 91.0 ± 0.2 | 91.6 ± 0.3 | no detectable transchelation | – | – | O=C(O)CN1CCN(CC(=O)O)CCN(Cc2cccc(C(=O)O)n2)CC1 [MONOPIC, 6-{[4,7-Bis(carboxymethyl)-1,4,7-triazonan-1-yl]methyl}-2-pyridinecarboxylic acid]
– | – | – | – | – | – | – | – | – | limited interconversion | do not interconvert even after 12 hours | O=C(O)CC[C@H](NC(=O)N[C@@H](CCC(=O)NCCCCCNC(=O)CCC(C(=O)O)N1CCN(CC(=O)O)CCN(Cc2cccc(C(=O)O)n2)CC1)C(=O)O)C(=O)O (stereo in doubt) [PICAGA, 2-{3-[(R)-1-Carboxy-4-[5-(4-carboxy-4-{7-(carboxymethyl)-4-[(6-carboxy-2-pyridyl)methyl]-1,4,7-triazonan-1-yl}butyrylamino)pentylamino]-4-oxobutyl]ureido}glutaric acid]
9.41 | 74.4 ± 0.4 | 73.3 ± 0.5 | 74.7 ± 0.4 | – | 74.8 ± 1.8 | 74.4 ± 0.7 | 75.5 ± 0.9 | – | – | – | O=C(O)CN1CCN(CC(=O)O)CCN(CC(=O)O)CCN(CC(=O)O)CC1 [DOTA, reference compound]
90.2 | 77.4 ± 5.2 | 67.8 ± 0.9 | 51.5 ± 0.4 | diminished complex inertness | 98.9 ± 0.3 | 98.3 ± 0.1 | 97.4 ± 0.4 | – | – | – | O=C(O)CN1CCN(Cc2cccc(C(=O)O)n2)CCN(Cc2cccc(C(=O)O)n2)CC1 [NO1A2PIC]
